Measurements as given in patent publication US20260176262A1, “KRAS INHIBITORS, PREPARATION METHOD THEREFOR, AND PHARMACEUTICAL USE THEREOF” (ABBISKO THERAPEUTICS CO., LTD., priority 2021, published 2026).
Like-named read-outs stand apart in the source and are kept apart here.

Tests used:
AGS cell = assay: Anti-proliferative 2D CTG assay, AGS cells; format: cell-based; conditions: Homo sapiens, 72 h
Method in brief: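 Cells seeded at 1000/well overnight, then treated with 10-point 1:5 dilutions ([…], 0.1% DMSO) for 3 days at 37° C. Viability read by CellTiter-Glo luminescence; % inhibition versus HPE/ZPE controls, IC50 from four-parameter fit.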

[1] = Pharmacokinetic experiment in mice; conditions: male, ICR, mouse, plasma
Method: ICR mice male N=3 original source: Shanghai Sippr-Bk Lab Animal Co., Ltd.
Single oral (PO) administration in ICR mice: The compounds were weighed and added to the solvent of 0.5% CMC+1% Tween 80 respectively, well shaken, and ultrasonicated to get a light yellow suspension. 3 mice were administered orally after fasting overnight. The dose was 10 mg/kg.
About 90 μL/timepoint blood was collected through the orbital cavity, anticoagulated with sodium heparin, placed on ice after collection, and centrifuged to separate the plasma within 1 hour (centrifugation conditions: 8000 rpm, 6 m 2-8C). The blood collection timepoints were 0, 0.25, 0.5, 1, 2, 4, 6, 8 and 24 h. The samples were stored in a −20° C. refrigerator.
The plasma sample was 40 μL, 160 μL of ice-cold acetonitrile containing internal standard was added, vortexed for 1 minute, and centrifuged at 18,000 rpm for 10 minutes. The supernatant was transferred to a 96-well plate, and 5 μL was injected into LC-MS/MS for analysis.

KRAS^G12D/cRAF = KRAS^G12D/cRAF (Homo sapiens, UniProt P01116, G12D); assay: KRAS G12D/cRAF binding test (Alphalisa); conditions: His-tagged KRAS G12D + GMPPNP, GST-tagged cRAF
Method in brief: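 His-tagged KRAS G12D loaded with GMPPNP was incubated with compound (8-point 3-fold series from 5 mM DMSO stock) and then GST-cRAF for 15 min at room temperature. AlphaLISA detection followed after 60 min. IC50 came from a four-parameter fit of signal ratios against the DMSO control.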

[2] = AGS cells, incubated 3 days, CTG, class symbols, read-out: AGS cell IC50
[3] = AGS cells, incubated 3 days, CTG, numeric values, read-out: AGS cell IC50

Chain of KRAS^G12D/cRAF (P01116 1-188 isoform P01116-2 G12D): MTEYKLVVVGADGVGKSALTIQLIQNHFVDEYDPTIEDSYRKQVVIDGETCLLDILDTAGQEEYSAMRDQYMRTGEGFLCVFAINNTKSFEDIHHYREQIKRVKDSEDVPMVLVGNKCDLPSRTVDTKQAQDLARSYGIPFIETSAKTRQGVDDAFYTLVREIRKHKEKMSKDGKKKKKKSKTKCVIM

Row | SMILES | IC50 (AGS cell; [2]) [nM] | AUC(0-t) ([1]; po, 10 mg/kg) [ng·h/mL] | half-life ([1]; po, 10 mg/kg) [h] | IC50 (KRAS^G12D/cRAF; class symbols) [nM] | IC50 (AGS cell; [3]) [nM] | AUC(0-t) ([1]; iv, 2 mg/kg) [ng·h/mL] | half-life ([1]; iv, 2 mg/kg) [h] | bioavailability ([1]; po, 10 mg/kg) [%] | IC50 (KRAS^G12D/cRAF; numeric values) [nM] | IC50 (AGS cell; AGS, read-out: AGS cell IC50 (nM)) [nM]
1 | [2H]C([2H])([2H])C12CCC(CN(c3nc(OC[C@@]45CCCN4C[C@H](F)C5)nc4c(F)c(-c5cc(O)cc6ccc(F)c(C#C)c56)nc(OC)c34)C1)N2 (stereo partly drawn) [Example 38, 5-ethynyl-6-fluoro-4-(8-fluoro-2-(((2R,7aS)-2-fluorotetrahydro-1H-pyrrolizin-7a(5H)-yl)methoxy)-5-methoxy-4-(1-(methyl-d3)-3,8-diazabicyclo [3.2.1]octan-3-yl)pyrido [4,3-d]pyrimidin-7-yl)naphthalen-2-ol] | 50 to 500 | 115 | 9.2 | < 50 | – | – | – | – | – | –
2 | C#Cc1c(F)ccc2cc(O)cc(-c3ncc4c(N5C[C@@H]6CC[C@](CC)(C5)N6)nc(OC[C@@]56CCCN5C[C@H](F)C6)nc4c3F)c12 [Example 54, 4-(4-((1R,5S)-1-ethyl-3,8-diazabicyclo[3.2.1]octan-3-yl)-8-fluoro-2-(((2R,7aS)-2-fluorotetrahydro-1H-pyrrolizin-7a(5H)-yl)methoxy)pyrido[4,3-d]pyrimidin-7-yl)-5-eth ynyl-6-fluoronaphthalen-2-ol] | – | 1160 | 9.8 | – | 7.3 | 460 | 7.7 | 51 | 55 | –
3 | [2H]C([2H])([2H])OCC12CCC(CN(c3nc(OC[C@@]45CCCN4C[C@H](F)C5)nc4c(F)c(-c5cc(O)cc6ccc(F)c(C#C)c56)ncc34)C1)N2 (stereo partly drawn) [Example 2, 5-ethynyl-6-fluoro-4-(8-fluoro-2-(((2R,7aS)-2-fluorotetrahydro-1H-pyrrolizin-7a(5H)-yl)methoxy)-4-(1-((methoxy-d3)methyl)-3,8-diazabicyclo [3.2.1]octan-3-yl)pyrido[4,3-d]pyrimidin-7-yl)naphthalen-2-ol] | < 50 | 602 | 8.3 | 50 to 500 | – | – | – | – | – | –
4 | C#Cc1c(F)ccc2cc(O)cc(-c3ncc4c(N5CC6CCC(C=C)(C5)N6)nc(OC[C@@]56CCCN5C[C@H](F)C6)nc4c3F)c12 (stereo partly drawn) [Example 5, 5-ethynyl-6-fluoro-4-(8-fluoro-2-(((2R,7aS)-2-fluorotetrahydro-1H-pyrrolizin-7a(5H)-yl)methoxy)-4-(1-vinyl-3,8-diazabicyclo[3.2.1]octan-3-yl)pyrido[4,3-d]pyrimidin-7-yl)naphthalen-2-ol] | – | 489 | 6.3 | – | 15 | – | – | – | 72 | –
5 | [2H]C([2H])([2H])OC[C@@]12CC[C@@H](CN(c3nc(OC[C@@]45CCCN4C[C@H](F)C5)nc4c(F)c(-c5cc(O)cc6ccc(F)c(C#C)c56)nc(OC)c34)C1)N2 [Example 50, 5-ethynyl-6-fluoro-4-(8-fluoro-2-(((2R,7aS)-2-fluorotetrahydro-1H-pyrrolizin-7a(5H)-yl)methoxy)-5-methoxy-4-((1R,5S)-1-((methoxy-d3)methyl)-3,8-diazabicyclo[3.2.1]octan-3-yl)pyrido[4,3-d]pyrimidin-7-yl)naphthalen-2-ol] | – | 2660 | 6.4 | – | 6.5 | 1100 | 6.7 | 48 | 10 | –
6 | C#Cc1c(F)ccc2cc(O)cc(-c3ncc4c(N5CC6CCC(COCC)(C5)N6)nc(OC[C@@]56CCCN5C[C@H](F)C6)nc4c3F)c12 (stereo partly drawn) [Example 32, 4-(4-(1-(ethoxymethyl)-3,8-diazabicyclo[3.2.1]octan-3-yl)-8-fluoro-2-(((2R,7aS)-2-fluorotetrahydro-1H-pyrrolizin-7a(511)-yl)methoxy)pyrido[4,3-d]pyrimidin-7-yl)-5-ethynyl-6-fluoronaphthalen-2-ol] | – | 2200 | 4.6 | 50 to 500 | – | – | – | – | – | < 50
7 | C#Cc1c(F)ccc2cc(O)cc(-c3ncc4c(N5CC6CCC(C5)N6)nc(OC[C@@]56CCCN5C[C@H](F)C6)nc4c3F)c12 [Positive Compounds, reference compound] | – | 40 | 1.6 | – | – | 337 | 3.1 | 2.4 | – | –
8 | C#Cc1c(F)ccc2cc(O)cc(-c3ncc4c(N5CC6CCC(C(=O)OC)(C5)N6)nc(OC[C@@]56CCCN5C[C@H](F)C6)nc4c3F)c12 (stereo partly drawn) [Example 23, methyl 3-(7-(8-ethynyl-7-fluoro-3-hydroxynaphthalen-1-yl)-8-fluoro-2-(((2R,7aS)-2-fluorotetrahydro-1H-pyrrolizin-7a(5H)-yl)methoxy)pyrido[4,3-d]pyrimidin-4-yl)-3,8-diazabicyclo[3.2.1] octan-1-carboxylate] | 50 to 500 | – | – | 50 to 500 | – | – | – | – | – | –
9 | [2H]C([2H])([2H])OC[C@]12CC[C@H](CN(c3nc(OC[C@@]45CCCN4C[C@H](F)C5)nc4c(F)c(-c5cc(O)cc6ccc(F)c(C#C)c56)nc(OCC)c34)C1)N2 [Example 37, 4-(5-ethoxy-8-fluoro-2-(((2R, 7aS)-2-fluorotetrahydro-1H-pyrrolizin-7a(5H)-yl)methoxy)-4-((1S,5R)-1-((methoxy-d3)methyl)-3,8-diazabicyclo [3.2.1]octan-3-yl)pyrido [4,3-d]pyrimidin-7-yl)-5-ethynyl-6-fluoronaphthalen-2-ol] | < 50 | – | – | 50 to 500 | – | – | – | – | – | –
10 | C#Cc1c(F)ccc2cc(O)cc(-c3ncc4c(N5CC6CCC(CCOC)(C5)N6)nc(OC[C@@]56CCCN5C[C@H](F)C6)nc4c3F)c12 (stereo partly drawn) [Example 9, 5-ethynyl-6-fluoro-4-(8-fluoro-2-(((2R,7aS)-2-fluorotetrahydro-1H-pyrrolizin-7a(5H)-yl)methoxy)-4-(1-(2-methoxyethyl)-3,8-diazabicyclo[3.2.1]octan-3-yl)pyrido[4,3-d]pyrimidin-7-yl) naphthalen-2-ol] | 50 to 500 | – | – | 50 to 500 | – | – | – | – | – | –
11 | C#Cc1c(F)ccc2cc(O)cc(-c3ncc4c(N5CC6CCC(CCF)(C5)N6)nc(OC[C@@]56CCCN5C[C@H](F)C6)nc4c3F)c12 (stereo partly drawn) [Example 8, 5-ethynyl-6-fluoro-4-(8-fluoro-4-(1-(2-fluoroethyl)-3,8-diazabicyclo[3.2.1]octan-3-yl)-2-(((2R,7aS)-2-fluorotetrahydro-1H-pyrrolizin-7a(5H)-yl)methoxy)pyrido[4,3-d]pyrimidin-7-yl) naphthalen-2-ol] | < 50 | – | – | < 50 | – | – | – | – | – | –
12 | C#Cc1c(F)ccc2cc(O)cc(-c3ncc4c(N5CC6CCC(CN(C)C(C)=O)(C5)N6)nc(OC[C@@]56CCCN5C[C@H](F)C6)nc4c3F)c12 (stereo partly drawn) [Example 25, N-((3-(7-(8-ethynyl-7-fluoro-3-hydroxynaphthalen-1-yl)-8-fluoro-2-(((2R,7aS)-2-fluorotetrahydro-1H-pyrrolizin-7a(5H)-yl)methoxy)pyrido[4,3-d]pyrimidin-4-yl)-3,8-diazabicyclo[3.2.1]octan-1-yl)methyl)-N-methylacetamide] | > 500 | – | – | 50 to 500 | – | – | – | – | – | –
13 | C#Cc1c(F)ccc2cc(O)cc(-c3ncc4c(N5CC6CCC(CC)(C5)N6)nc(OC[C@@]56CCCN5C[C@H](F)C6)nc4c3F)c12 (stereo partly drawn) [Example 19, 4-(4-(1-ethyl-3,8-diazabicyclo[3.2.1]octan-3-yl)-8-fluoro-2-(((2R,7aS)-2-fluorotetrahydro-1H -pyrrolizin-7a(5H)-yl)methoxy)pyrido[4,3-d]pyrimidin-7-yl)-5-ethynyl-6-fluoronaphthalen-2-ol] | < 50 | – | – | 50 to 500 | – | – | – | – | – | –
14 | C#Cc1c(F)ccc2cc(O)cc(-c3ncc4c(N5C[C@H]6CC[C@@](CCF)(C5)N6)nc(OC[C@@]56CCCN5C[C@H](F)C6)nc4c3F)c12 [Example 55, 5-ethynyl-6-fluoro-4-(8-fluoro-4-((1R,5R)-1-(2-fluoroethyl)-3,8-diazabicyclo[3.2.1]octan-3-yl)-2-(((2R,7aS)-2-fluorotetrahydro-1H-pyrrolizin-7a(5H)-yl)methoxy)pyrido[4,3-d]pyrimidin-7-yl)naphthalen-2-ol] | 50 to 500 | 296 | 7.4 | – | – | – | – | – | – | –
15 | C#Cc1c(F)ccc2cc(O)cc(-c3ncc4c(N5C[C@@H]6CC[C@](/C=C\F)(C5)N6)nc(OC[C@@]56CCCN5C[C@H](F)C6)nc4c3F)c12 [Example 60, 5-ethynyl-6-fluoro-4-(8-fluoro-2-(((2R,7aS)-2-fluorotetrahydro-1H-pyrrolizin-7a(5H)-yl)methoxy)-4-((1S,5S)-1-((Z)-2-fluorovinyl)-3,8-diazabicyclo[3.2.1]octan-3-yl)pyrido[4,3-d]pyrimidin-7-yl)naphthalen-2-ol] | – | – | – | – | 79 | – | – | – | 25 | –
16 | [2H]C([2H])([2H])OC[C@]12CC[C@H](CN(c3nc(OC[C@@]45CCCN4C[C@H](F)C5)nc4c(F)c(-c5cc(O)cc6ccc(F)c(C#C)c56)nc(OCC)c34)C1)N2 [Example 51, 4-(5-ethoxy-8-fluoro-2-(((2R,7aS)-2-fluorotetrahydro-1H-pyrrolizin-7a(5H)-yl)methoxy)-4-((1S,5R)-1-((methoxy-d3)methyl)-3,8-diazabicyclo[3.2.1]octan-3-yl)pyrido[4,3-d]pyrimidin-7-yl)-5-ethynyl-6-fluoronaphthalen-2-ol] | – | 1120 | 6.2 | – | – | 1570 | 5.4 | 28 | – | –
